Reference: patent publication US11834453B2, “Substituted pyrimido[5,4-d]pyrimidines as HER2 inhibitors” (Array BioPharma Inc., priority 2020, dated 2023)
Like-named read-outs stand apart in the source and are kept apart here.

Assays:
[1] = molecular target: ErbB2 insYVMA (HER2-YVMA, SEQ ID NO: 2) (Homo sapiens, UniProt P04626, INS775YVMA/P1170A); experiment: biochemical; conditions: ErbB2 insYVMA enzyme assay
ErbB2 WT = ErbB2 WT (Homo sapiens (Human), UniProt P04626); experiment: ErbB enzyme assay (CisBio HTRF KinEASE-TK), Assay 2; assay type: biochemical
In short: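 ErbB2 phosphorylates 250 nM biotin-TK substrate at 1 mM ATP in 25 mM HEPES pH 7.4, 10 mM MgCl2, 0.01% Triton X-100 and 2% DMSO, for 30 min at 22 °C. Product is detected by HTRF with Sa-XL665 and TK-Ab-Cryptate. Percent of control is set by DMSO-only wells and pre-quenched wells.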

EGFR = EGFR (Homo sapiens (Human), UniProt P00533); experiment: ErbB enzyme assay (CisBio HTRF KinEASE-TK), Assay 3; assay type: biochemical
In short: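 Inhibition is measured as reduced peptide phosphorylation by HTRF KinEASE-TK at 1 mM ATP and 250 nM substrate, 30 min at 22 °C. Values are IC50s from a 4-parameter logistic fit.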

[2] = molecular target: ErbB2 with Exon 20 YVMA insertion (HER2-YVMA) (Homo sapiens (Human), UniProt P04626, INS775YVMA); experiment: Cellular phosphorylation assay, constitutive ErbB2 phosphorylation (Y1196) in engineered NIH 3T3 cells, Assay 4; assay type: cell-based
In short: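 Engineered NIH 3T3 cells expressing HER2-YVMA treated with compounds 1 h at 37 °C, then formaldehyde-fixed and methanol-permeabilized. pErbB2 Y1196 detected by in-cell infrared immunofluorescence, normalized to GAPDH. IC50 from the normalized curves.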

EGFR wild type (EGFR WT) = EGFR wild type (EGFR WT) (Homo sapiens (Human), UniProt P00533); experiment: Cellular phosphorylation assay, EGF-stimulated EGFR phosphorylation in engineered NIH 3T3 cells, Phospho-EGFR DuoSet IC ELISA, Assay 5; assay type: cell-based
Procedure: NIH 3T3 cells were engineered to express EGFR wild type (EGFR WT; Assay 5, no footnote) with constructs obtained from GenScript and grown in DMEM supplemented with 10% fetal bovine serum and 15 μg/ml blasticidin. Cells were plated in 96-well plates at 20,000 cells/well and allowed to attach overnight at 37° C./5% CO2. Serially diluted compounds were added to the plates for 1 hour at 37° C./5% CO2. EGFR WT cells were stimulated with 100 ng/ml rEGF for an additional 10 minutes at 37° C./5% CO2. After compound incubation, medium was removed from the cells, which were then lysed in 100 μL/well lysis buffer according to the manufacturer's protocol (R&D Systems, DYC1095, Human Phospho-EGFR DuoSet IC ELISA). Same protocol was followed to determine the total levels of phospho-EGFR by measuring the optical density of each well using a VersaMax microplate reader. Curves were then generated and IC50 values calculated.

Sequence of ErbB2 WT (P04626 23-1255): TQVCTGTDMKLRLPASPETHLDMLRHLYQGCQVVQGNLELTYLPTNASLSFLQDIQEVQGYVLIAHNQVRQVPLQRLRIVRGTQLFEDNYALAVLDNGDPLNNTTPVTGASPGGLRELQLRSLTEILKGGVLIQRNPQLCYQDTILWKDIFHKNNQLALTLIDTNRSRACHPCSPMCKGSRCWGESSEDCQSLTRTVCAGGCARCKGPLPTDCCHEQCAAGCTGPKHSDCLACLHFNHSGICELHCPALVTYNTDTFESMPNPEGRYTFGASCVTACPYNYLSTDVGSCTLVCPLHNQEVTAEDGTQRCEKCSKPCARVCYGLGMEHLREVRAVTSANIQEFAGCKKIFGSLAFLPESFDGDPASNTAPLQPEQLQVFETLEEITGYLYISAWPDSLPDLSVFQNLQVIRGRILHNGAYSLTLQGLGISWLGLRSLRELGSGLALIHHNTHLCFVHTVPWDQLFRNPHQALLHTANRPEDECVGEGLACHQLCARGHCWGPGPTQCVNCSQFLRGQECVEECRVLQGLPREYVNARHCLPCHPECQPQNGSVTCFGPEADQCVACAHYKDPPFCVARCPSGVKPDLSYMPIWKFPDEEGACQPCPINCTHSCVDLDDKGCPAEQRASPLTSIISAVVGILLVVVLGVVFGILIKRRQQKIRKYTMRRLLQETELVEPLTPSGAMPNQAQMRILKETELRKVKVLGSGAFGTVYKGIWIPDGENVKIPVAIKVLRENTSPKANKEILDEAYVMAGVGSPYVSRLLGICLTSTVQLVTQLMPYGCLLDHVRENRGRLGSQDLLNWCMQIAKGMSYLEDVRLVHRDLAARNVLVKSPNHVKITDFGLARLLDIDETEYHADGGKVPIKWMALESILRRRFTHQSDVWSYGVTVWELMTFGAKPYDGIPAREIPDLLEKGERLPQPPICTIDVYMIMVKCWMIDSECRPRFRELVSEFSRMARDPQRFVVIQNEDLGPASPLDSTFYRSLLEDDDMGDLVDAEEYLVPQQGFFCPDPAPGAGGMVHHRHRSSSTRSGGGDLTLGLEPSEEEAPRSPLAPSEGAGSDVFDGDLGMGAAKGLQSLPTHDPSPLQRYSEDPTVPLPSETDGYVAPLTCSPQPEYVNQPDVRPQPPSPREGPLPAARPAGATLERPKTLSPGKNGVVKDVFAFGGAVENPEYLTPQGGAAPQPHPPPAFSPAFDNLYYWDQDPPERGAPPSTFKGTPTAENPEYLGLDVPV
Sequence of ErbB2 with Exon 20 YVMA insertion (HER2-YVMA) (P04626 other isoform, or with tags, fused parts or gaps ins YVMA behind 775): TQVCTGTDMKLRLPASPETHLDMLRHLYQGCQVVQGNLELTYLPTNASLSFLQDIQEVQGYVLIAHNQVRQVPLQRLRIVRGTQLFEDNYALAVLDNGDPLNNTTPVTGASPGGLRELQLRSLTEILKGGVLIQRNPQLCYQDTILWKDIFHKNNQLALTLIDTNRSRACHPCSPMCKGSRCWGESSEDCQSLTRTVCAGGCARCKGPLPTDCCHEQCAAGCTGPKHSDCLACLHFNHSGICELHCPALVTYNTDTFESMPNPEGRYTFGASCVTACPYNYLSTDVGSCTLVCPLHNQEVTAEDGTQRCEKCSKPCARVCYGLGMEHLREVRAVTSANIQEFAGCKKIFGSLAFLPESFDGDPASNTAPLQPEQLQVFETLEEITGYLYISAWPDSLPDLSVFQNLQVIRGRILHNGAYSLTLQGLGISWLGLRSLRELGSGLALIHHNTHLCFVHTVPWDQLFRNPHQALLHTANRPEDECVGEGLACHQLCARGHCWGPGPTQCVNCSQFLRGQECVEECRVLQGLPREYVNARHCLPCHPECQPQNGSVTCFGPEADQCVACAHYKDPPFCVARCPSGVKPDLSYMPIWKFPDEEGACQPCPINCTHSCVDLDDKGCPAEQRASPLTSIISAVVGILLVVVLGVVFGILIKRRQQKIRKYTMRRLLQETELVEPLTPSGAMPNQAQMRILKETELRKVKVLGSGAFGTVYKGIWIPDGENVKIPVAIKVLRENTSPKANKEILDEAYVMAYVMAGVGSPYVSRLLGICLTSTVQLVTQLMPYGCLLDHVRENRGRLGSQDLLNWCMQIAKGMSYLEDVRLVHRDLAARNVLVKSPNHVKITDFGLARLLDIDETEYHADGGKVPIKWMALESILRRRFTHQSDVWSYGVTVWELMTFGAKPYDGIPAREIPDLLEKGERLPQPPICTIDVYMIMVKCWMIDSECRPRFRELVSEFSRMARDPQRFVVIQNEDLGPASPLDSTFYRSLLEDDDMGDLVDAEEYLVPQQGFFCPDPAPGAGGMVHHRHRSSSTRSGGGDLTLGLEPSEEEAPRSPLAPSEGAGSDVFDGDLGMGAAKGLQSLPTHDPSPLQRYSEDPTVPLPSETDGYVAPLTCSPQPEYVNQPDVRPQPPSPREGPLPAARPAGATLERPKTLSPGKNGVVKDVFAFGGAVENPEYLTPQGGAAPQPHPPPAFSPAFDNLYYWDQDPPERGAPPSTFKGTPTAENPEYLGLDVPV
Sequence of ErbB2 insYVMA (HER2-YVMA, SEQ ID NO: 2) (P04626 with tags, fused parts or gaps INS775YVMA/P1170A limits assumed): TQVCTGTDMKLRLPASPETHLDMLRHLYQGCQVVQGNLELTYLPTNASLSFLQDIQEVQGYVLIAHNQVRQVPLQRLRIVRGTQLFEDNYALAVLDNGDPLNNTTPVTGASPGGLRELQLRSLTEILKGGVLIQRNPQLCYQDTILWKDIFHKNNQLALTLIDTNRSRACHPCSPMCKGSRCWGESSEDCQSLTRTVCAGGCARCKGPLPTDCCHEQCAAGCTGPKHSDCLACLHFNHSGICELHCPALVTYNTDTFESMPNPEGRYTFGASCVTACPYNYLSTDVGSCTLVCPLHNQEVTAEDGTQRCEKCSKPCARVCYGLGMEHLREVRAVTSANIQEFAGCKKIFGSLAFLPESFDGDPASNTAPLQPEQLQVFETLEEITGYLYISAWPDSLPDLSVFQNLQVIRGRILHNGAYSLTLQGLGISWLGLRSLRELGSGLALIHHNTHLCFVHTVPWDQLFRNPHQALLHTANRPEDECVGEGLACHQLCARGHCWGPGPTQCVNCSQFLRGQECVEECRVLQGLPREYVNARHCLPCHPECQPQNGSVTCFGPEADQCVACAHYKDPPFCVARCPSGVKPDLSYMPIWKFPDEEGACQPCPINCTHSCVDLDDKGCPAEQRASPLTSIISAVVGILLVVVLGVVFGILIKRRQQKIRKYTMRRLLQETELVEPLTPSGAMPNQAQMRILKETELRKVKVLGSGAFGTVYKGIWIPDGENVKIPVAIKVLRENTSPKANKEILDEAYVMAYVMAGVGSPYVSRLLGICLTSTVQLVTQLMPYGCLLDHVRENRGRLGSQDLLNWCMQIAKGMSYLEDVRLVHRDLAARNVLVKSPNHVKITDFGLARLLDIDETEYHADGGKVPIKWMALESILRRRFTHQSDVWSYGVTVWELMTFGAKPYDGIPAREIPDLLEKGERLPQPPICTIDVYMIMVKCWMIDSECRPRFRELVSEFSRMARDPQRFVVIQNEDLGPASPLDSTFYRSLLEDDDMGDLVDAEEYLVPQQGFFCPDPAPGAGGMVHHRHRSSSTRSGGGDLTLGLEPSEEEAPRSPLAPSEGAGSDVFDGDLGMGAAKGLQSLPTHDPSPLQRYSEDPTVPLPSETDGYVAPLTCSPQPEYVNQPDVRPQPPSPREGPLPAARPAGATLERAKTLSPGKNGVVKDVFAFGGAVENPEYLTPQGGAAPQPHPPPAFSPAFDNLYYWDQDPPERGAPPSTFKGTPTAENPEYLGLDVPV
Sequence of EGFR (P00533 25-1210): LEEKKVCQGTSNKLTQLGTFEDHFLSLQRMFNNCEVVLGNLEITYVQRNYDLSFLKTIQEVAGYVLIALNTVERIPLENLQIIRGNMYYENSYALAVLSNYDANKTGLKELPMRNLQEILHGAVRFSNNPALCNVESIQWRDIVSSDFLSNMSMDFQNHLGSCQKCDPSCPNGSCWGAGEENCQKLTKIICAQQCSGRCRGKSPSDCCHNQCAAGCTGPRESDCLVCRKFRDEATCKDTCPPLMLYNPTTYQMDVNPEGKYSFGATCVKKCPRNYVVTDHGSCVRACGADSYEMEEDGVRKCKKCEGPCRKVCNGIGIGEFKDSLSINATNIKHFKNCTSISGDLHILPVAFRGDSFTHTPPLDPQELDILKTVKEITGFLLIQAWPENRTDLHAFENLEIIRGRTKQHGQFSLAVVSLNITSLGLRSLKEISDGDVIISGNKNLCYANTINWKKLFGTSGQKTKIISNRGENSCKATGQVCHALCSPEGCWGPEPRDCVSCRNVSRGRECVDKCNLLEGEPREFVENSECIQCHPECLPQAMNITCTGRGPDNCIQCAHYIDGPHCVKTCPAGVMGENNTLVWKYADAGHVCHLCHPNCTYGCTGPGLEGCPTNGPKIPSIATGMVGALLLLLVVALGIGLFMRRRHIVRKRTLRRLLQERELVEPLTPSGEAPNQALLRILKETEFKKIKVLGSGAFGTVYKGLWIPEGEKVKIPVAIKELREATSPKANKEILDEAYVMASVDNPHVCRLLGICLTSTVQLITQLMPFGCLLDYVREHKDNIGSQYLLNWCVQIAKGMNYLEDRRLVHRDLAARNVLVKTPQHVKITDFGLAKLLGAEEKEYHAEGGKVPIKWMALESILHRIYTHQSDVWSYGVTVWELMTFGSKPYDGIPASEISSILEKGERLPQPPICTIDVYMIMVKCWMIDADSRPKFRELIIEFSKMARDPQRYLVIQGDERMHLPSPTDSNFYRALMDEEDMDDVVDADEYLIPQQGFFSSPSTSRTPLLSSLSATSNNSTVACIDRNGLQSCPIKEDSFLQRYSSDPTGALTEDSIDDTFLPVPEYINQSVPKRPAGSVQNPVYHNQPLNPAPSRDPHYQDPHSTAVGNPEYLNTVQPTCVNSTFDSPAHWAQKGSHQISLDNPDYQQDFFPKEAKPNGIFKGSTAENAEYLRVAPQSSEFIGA

| Structure (SMILES) | IC50 ([1]; read-out: Assay 1 IC50) [nM] | IC50 (ErbB2 WT) [µM] | IC50 (EGFR) [µM] | IC50 [2] [µM] | IC50 (EGFR wild type (EGFR WT)) [µM] | IC50 ([1]; Assay 1 IC50 (nM)) [nM] |
| --- | --- | --- | --- | --- | --- | --- |
| Cc1cc(Nc2ncnc3cnc(N4CCN(CC(F)F)CC4)nc23)ccc1Oc1ccc2c(c1)ncn2C [Example 477] | 59.6 | 0.0471 | ≥ 10 | 0.0533 | ≥ 5 | – |
| Cn1cnc2cc(Oc3ccc(Nc4ncnc5cnc(N6C[C@@H]7CC[C@H]6CO7)nc45)cc3Cl)ccc21 [Example 446] | 20.7 | 0.134 | ≥ 10 | 0.123 | ≥ 5 | – |
| O[C@H]1CN(c2ncc3ncnc(Nc4ccc(Oc5ccn6ncnc6c5)c(Cl)c4)c3n2)CC[C@@H]1F [Example 338] | 13.2 | 0.0128 | 1.99 | 0.0652 | ≥ 5 | – |
| Cc1cc(Nc2ncnc3cnc(N4CCC[C@](C)(O)C4)nc23)ccc1Oc1ccc2c(c1)ncn2C [Example 461] | 20.5 | 0.0319 | ≥ 10 | 0.0465 | ≥ 5 | – |
| Cn1cnc2cc(Oc3ccc(Nc4ncnc5cnc(N6CCC(C)(O)CC6)nc45)cc3Cl)ccc21 [Example 480] | 18.1 | 0.0233 | 5.04 | 0.0044 | ≥ 5 | – |
| Cc1cc(Nc2ncnc3cnc(N4CC5(CC5)CS4(=O)=O)nc23)ccc1Oc1ccc2c(c1)ncn2C [Example 264] | 35.1 | 0.0424 | ≥ 10 | 0.0066 | ≥ 5 | – |
| Cc1cc(Nc2ncnc3cnc(N4CCCS4(=O)=O)nc23)ccc1Oc1ccc2c(c1)ncn2C [Example 139, 2-(8-((3-methyl-4-((1-methyl-1H-benzo[d]imidazol-5-yl)oxy)phenyl)amino)pyrimido[5,4-d]pyrimidin-2-yl)isothiazolidine 1,1-dioxide] | 9.6 | 0.0126 | 1.57 | 0.0063 | ≥ 5 | – |
| Cc1cc(Nc2ncnc3cnc(N(C)[C@H]4CN(C)C[C@H]4F)nc23)ccc1Oc1ccc2c(c1)ncn2C [Example 99, N2-((3S,4R)-4-fluoro-1-methylpyrrolidin-3-yl)-N2-methyl-N8-(3-methyl-4-((1-methyl-1H-benzo[d]imidazol-5-yl)oxy)phenyl)pyrimido[5,4-d]pyrimidine-2,8-diamine] | 17.1 | 0.018 | 6.47 | 0.0445 | ≥ 5 | – |
| Cc1cc(Nc2ncnc3cnc(N4CC5CCC(C4)O5)nc23)ccc1Oc1ccc2c(c1)ncn2C [Example 256] | 49.1 | 0.0717 | ≥ 10 | 0.0122 | ≥ 5 | – |
| Cc1ncc(-c2ncc3ncnc(Nc4ccc(Oc5ccc6c(c5)ncn6C)c(C)c4)c3n2)s1 [Example 42, N-(3-methyl-4-((1-methyl-1H-benzo[d]imidazol-5-yl)oxy)phenyl)-6-(2-methylthiazol-5-yl)pyrimido[5,4-d]pyrimidin-4-amine] | 58.2 | 0.176 | ≥ 10 | 0.0168 | ≥ 5 | – |
| Cn1cnc2cc(Oc3ccc(Nc4ncnc5cnc(N6CCC7(CCOC7)C6)nc45)cc3Cl)ccc21 (stereo not drawn) [Example 443] | – | 0.104 | ≥ 10 | 0.0377 | ≥ 5 | 60.1 |
| COC1(C)CN(c2ncc3ncnc(Nc4ccc(Oc5ccc6c(c5)ncn6C)c(C)c4)c3n2)C1 [Example 298] | 40.2 | 0.234 | ≥ 10 | 0.0386 | ≥ 5 | – |
| Cc1cc(Nc2ncnc3cnc(N(C)C[C@H]4COCCO4)nc23)ccc1Oc1ccc2c(c1)ncn2C [Example 413] | 49.7 | 0.103 | ≥ 10 | 0.0308 | ≥ 5 | – |
| FC(F)[C@H]1CCN1c1ncc2ncnc(Nc3ccc(Oc4ccn5ncnc5c4)c(Cl)c3)c2n1 [Example 410] | 14.7 | 0.0423 | 6.3 | 0.208 | ≥ 5 | – |
| Cc1cc(Nc2ncnc3cnc(N4CCC5COCC54)nc23)ccc1Oc1ccn2ncnc2c1 (stereo not drawn) [Example 420] | 8.2 | 0.0129 | 1.58 | 0.108 | ≥ 5 | – |
| C[C@@H]1COCCN1c1ncc2ncnc(Nc3ccc(Oc4ccc5c(c4)ncn5C)c(Cl)c3)c2n1 [Example 144, (R)—N-(3-chloro-4-((1-methyl-1H-benzo[d]imidazol-5-yl)oxy)phenyl)-6-(3-methylmorpholino)pyrimido[5,4-d]pyrimidin-4-amine] | 59.5 | 0.0782 | 6.91 | 0.0381 | ≥ 5 | – |
| CNc1ncc2ncnc(Nc3ccc(Oc4ccc5csnc5c4)c(C)c3)c2n1 [Example 241] | 28.3 | 0.123 | 1.64 | 0.244 | ≥ 5 | – |
| C[C@@H]1CN(c2ncc3ncnc(Nc4ccc(Oc5ccc6c(c5)ncn6C)c(Cl)c4)c3n2)CCO1 [Example 452] | 47.6 | 0.115 | ≥ 10 | 0.0202 | ≥ 5 | – |
| Cc1cc(Nc2ncnc3cnc(N4CC5CC(C4)O5)nc23)ccc1Oc1ccn2ncnc2c1 [Example 135, N-(4-([1,2,4]triazolo[1,5-a]pyridin-7-yloxy)-3-methylphenyl)-6-(6-oxa-3-azabicyclo[3.1.1]heptan-3-yl)pyrimido[5,4-d]pyrimidin-4-amine] | 26.2 | 0.0457 | ≥ 10 | 0.514 | ≥ 5 | – |
| O[C@H]1C[C@H]2C[C@@H]1CN2c1ncc2ncnc(Nc3ccc(Oc4ccn5ncnc5c4)c(Cl)c3)c2n1 [Example 335] | 15.7 | 0.0241 | 4.11 | 0.143 | ≥ 5 | – |
| Cc1cc(Nc2ncnc3cnc(N4CCN(CC(F)(F)F)CC4)nc23)ccc1Oc1ccc2c(c1)ncn2C [Example 85, N-(3-methyl-4-((1-methyl-1H-benzo[d]imidazol-5-yl)oxy)phenyl)-6-(4-(2,2,2-trifluoroethyl)piperazin-1-yl)pyrimido[5,4-d]pyrimidin-4-amine] | 204 | 0.726 | ≥ 10 | 0.13 | ≥ 5 | – |
| Cc1cc(Nc2ncnc3cnc(NCc4cnn(C)c4C)nc23)ccc1Oc1ccc2c(c1)ncn2C [Example 103, N2-((1,5-dimethyl-1H-pyrazol-4-yl)methyl)-N8-(3-methyl-4-((1-methyl-1H-benzo[d]imidazol-5-yl)oxy)phenyl)pyrimido[5,4-d]pyrimidine-2,8-diamine] | 20.3 | 0.0566 | ≥ 10 | 0.0615 | ≥ 5 | – |
| Cc1cc(Nc2ncnc3cnc(N4CC[C@]45CCOC5)nc23)ccc1Oc1ccn2ncnc2c1 [Example 374] | 14.3 | 0.0142 | 1.18 | 0.216 | ≥ 5 | – |
| Cc1cc(Nc2ncnc3cnc(N4CCC(C)(O)CC4)nc23)c(F)cc1Oc1ccc2c(c1)ncn2C [Example 215, 1-(8-((2-fluoro-5-methyl-4-((1-methyl-1H-benzo[d]imidazol-5-yl)oxy)phenyl)amino)pyrimido[5,4-d]pyrimidin-2-yl)-4-methylpiperidin-4-ol] | 28.8 | 0.12 | ≥ 10 | 0.0378 | ≥ 5 | – |
